The values below come from US20210332024A1, “MODULATORS OF PIN1 ACTIVITY AND USES THEREOF” (Yeda Research and Development Co. Ltd., priority 2019, published 2021).

Data set [1] can be described thus: Thiol reactivity assay (DTNB). The data set is classed as physicochemical. The following applies: 200 μM compound, pH 7.4, 37° C.
The subject of data set [2] is wild-type 8988T pancreatic cancer cells. The data set is described as follows: Organoid growth in Matrigel, wild-type PATU-8988T. The data set is classed as cell-based. The following applies: 1 μM, 9 days. Here is the method: As three dimensional (3D) organoid models can reflect in vivo results better than monolayer cell culture [Baker et al., Trends Cancer Res 2016, 2:176-190], the anti-proliferative activity of Pin1-3 in PATU-8988T was further evaluated in wild-type or Pin1-knockout cells grown as organoids in Matrigel™ droplets. Cells were treated for 9 days with Pin1-3 (or Pin1-3-AcA or vehicle as a control), replenishing the compound in media every 3 days.

Data set [3] deals with PDX (patient-derived xenograft) tumors. The data set is described as follows: PDX orthotopic xenograft mouse model. The format is in vivo. The following applies: IP 2 or 4 mg/kg every day, 6 weeks. Here is the method:
4×2 mm PDX (patient-derived xenograft) tumors were transplanted into NSC mouse pancreas (orthotopic xenografts). After 1 week of the transplantation, treatment of mice with Pin1-3 began. Mice were treated (IP) with Pin1-3 diluted solution (as a control), or 2 or 4 mg/kg […] every day. Tumor size were measured and mice were sacrificed after 6 weeks to collect tumor tissue (n=5).

Data set [4] has as its system MYCN-overexpressing PSNS neuroblasts. The data set is described as follows: Zebrafish embryo model of MYCN-driven neuroblastoma. The data set is classed as in vivo. The text has this: Zebrafish were used for a model of childhood neuroblastoma, in which the tissue-specific overexpression of the human MYCN transgene using the dopamine β hydroxylase (dβh) promoter in the zebrafish peripheral sympathetic nerve system (PSNS) drives neuroblastoma tumorigenesis in zebrafish [Zhu et al., Cancer Cell 2012, 21:362-373]. The fish are also transgenic for a PSNS-specific dβh:EGFP reporter line, so that the tumors can be visualized by EGFP. In this model, hyperproliferation of sympathetic neuroblasts is evident in the […] (counterpart of the adrenal medulla) starting at 4 days post-fertilization (dpf).
Zebrafish embryos at 3 dpf were treated with different concentrations of the test compound in the egg water (reverse osmosis or RO water with 0.6 gm/liter instant ocean salts) for 4 days. The embryos were transferred to egg water containing freshly diluted drug after 2 days (5 dpf). The embryos were then imaged at 7 dpf, and the relative EGFP+MYCN-overexpressing neuroblast cross-sectional area for each experimental group was quantified.
The effect of Pin1-binding […] on neuroblastoma cells was assessed using a zebrafish embryo model of neuroblastoma, using procedures described in the Materials and Methods section hereinabove. Neuroblastoma is a pediatric malignancy derived from the peripheral sympathetic nervous system (PSNS). […] Overexpression of the MYCN oncogene, which is the oncogenic driver in approximately 20% of human high-risk neuroblastomas, in the PSNS of Tg(dβh:MYCN;dβh:EGFP) transgenic zebrafish, causes the fish to develop neuroblast hyperplasia (as shown, for example, in FIG. 42), which rapidly progress into fully transformed tumors that faithfully resemble human high-risk neuroblastoma [Zhu et al., Cancer Cell 2012, 21:362-373; He et al., Elife 2016, 5; Zimmerman et al., Cancer Discov 2016, 8:320-335].

Data set [5] relates to cysteine residues on a proteome-wide scale, PATU-8988T cells. The data set is described as follows: CITe-Id chemoproteomic selectivity experiment. The format is cell-based. To be noted: PATU-8988T cells, 100, 500 or 1000 nM for 5 hours. Here is the method: In order to profile the selectivity of Pin1-3, a Covalent Inhibitor Target-site Identification (CITe-Id) experiment [Browne et al., […] 2019, 141, 191-203] was performed, as depicted in FIG. 28.
This chemoproteomic platform enables the identification and quantification of the dose-dependent binding of covalent inhibitors to cysteine residues on a proteome-wide scale. In this competition experiment, live PATU-8988T cells were incubated with Pin1-3 (100, 500 or 1000 nM) for 5 hours, followed by cell lysis and co-incubation with Pin1-3-DTB (2 μM) for 18 hours. Following trypsin digest and avidin enrichment, the DTB-modified peptides were analyzed by shotgun LC-MS/MS.

Regarding `CC(C)(C)CN(C(=O)CCl)C1CCS(=O)(=O)C1` (centres unmarked) [Pin1-3, 2-chloro-N-(sulfolan-3-yl)-N-neopentylacetamide], in data set [1], the “Reactivity Log k” value is reported as −7.43 and the Reactivity k is 3.73e-08 M⁻¹ s⁻¹. In data set [2], the Organoid growth entry is “significantly retarded organoid growth”. In data set [3], the PDX tumor growth entry is “inhibited PDX tumor growth in mice in a dose-dependent manner”. Besides, the “Cross-section of the EGFP-expressing PSNS cells” value in data set [4] (100 μM for 4 days) is reported as “indistinguishable from that of controls without hyperproliferation”. Besides, the Toxicity in embryos entry in data set [4] (25 to 100 μM in the egg water) is reported as “no evidence of toxicity”. Besides, the “Hyperproliferation of MYCN-overexpressing PSNS neuroblasts” value in data set [4] (25 to 100 μM in the egg water, 3 to 7 dpf) is recorded as “suppressed the hyperproliferation of MYCN-overexpressing PSNS neuroblasts”. The “Dose-dependent competition among 162 cysteine residues labeled by Pin1-3-DTB” value in data set [5] is “only Pin1 Cys113 exhibited dose-dependent competition”.
